# Results as given in ChEMBL document CHEMBL4715817, “Python Cathelicidin CATHPb1 Protects against Multidrug-Resistant Staphylococcal Infections by Antimicrobial-Immunomodulatory Duality” (J Med Chem, 2018).
# Calls of active or inactive are those of the source. The calls are words filed in the database; no cut-off is given here. Peptide text beside a SMILES is read from it.
# Experiments:
# Staphylococcus aureus [1] = test: Antimicrobial activity against methicillin resistant Staphylococcus aureus IS 08032712, incubated for 16 to 18 hrs by fluorescence microplate reader analysis; format: functional; details: time 16-18 hrs
# Staphylococcus aureus [2] = test: Antimicrobial activity against Staphylococcus aureus IS 08032706 incubated for 16 to 18 hrs by fluorescence microplate reader analysis; format: functional; details: time 16-18 hrs
# Nocardia asteroides = test: Antimicrobial activity against Nocardia asteroids incubated for 16 to 18 hrs by fluorescence microplate reader analysis; format: functional; details: time 16-18 hrs
# Bacillus cereus = test: Antimicrobial activity against Bacillus cereus incubated for 16 to 18 hrs by fluorescence microplate reader analysis; format: functional; details: time 16-18 hrs
# Enterococcus faecalis = test: Antimicrobial activity against Enterococcus faecalis IS 981 incubated for 16 to 18 hrs by fluorescence microplate reader analysis; format: functional; details: time 16-18 hrs
# Escherichia coli [3] = test: Antimicrobial activity against Escherichia coli IS 08040726 incubated for 16 to 18 hrs by fluorescence microplate reader analysis; format: functional; details: time 16-18 hrs
# Pseudomonas aeruginosa [4] = test: Antimicrobial activity against Pseudomonas aeruginosa ATCC 27853 incubated for 16 to 18 hrs by fluorescence microplate reader analysis; format: functional; details: time 16-18 hrs
# Pseudomonas aeruginosa [5] = test: Antimicrobial activity against Pseudomonas aeruginosa IS 08031014 incubated for 16 to 18 hrs by fluorescence microplate reader analysis; format: functional; details: time 16-18 hrs
# Candida albicans = test: Antimicrobial activity against Candida albicans IS 08030102 incubated for 16 to 18 hrs by fluorescence microplate reader analysis; format: functional; details: time 16-18 hrs
# Nakaseomyces glabratus [6] = test: Antimicrobial activity against Candida glabrata IS 08A802 incubated for 16 to 18 hrs by fluorescence microplate reader analysis; format: functional; details: time 16-18 hrs
# [7] = Immunomodulatory activity in mouse peritoneal macrophage assessed as increase in MCP-1 mRNA level at 20 ug/ml measured after 6 hrs by qRT-PCR analysis relative to control; format: functional; details: dose 20 µg/ml
# Macrophage [8] = test: Immunomodulatory activity in mouse peritoneal macrophage assessed as inhibition of LPS-induced IL-1beta level measured after 6 hrs by qRT-PCR analysis; format: functional, tissue-based; details: dose 5-20 µg/ml
# Macrophage [9] = test: Immunomodulatory activity in mouse peritoneal macrophage assessed as inhibition of LPS-induced IL-1beta level measured after 24 hrs by ELISA; format: functional, tissue-based; details: dose 5-20 µg/ml
# Staphylococcus aureus [10] = test: In vivo antibacterial activity against vancomycin resistant Staphylococcus aureus infected in ip dosed kunming mouse assessed as increase in survival rate administered 4 hrs after infection and measured up to 7 days after infection; format: functional, organism-based; details: dose 5-20 mg/kg, time day <=7
# Staphylococcus aureus [11] = test: In vivo antibacterial activity against methicillin resistant Staphylococcus aureus IS 08032712 infected in kunming mouse assessed as increase in survival rate at 10 mg/kg, ip administered 4 hrs after infection and measured up to 7 days after infection; format: functional, organism-based; details: time day <=7
# Escherichia coli [12] = test: In vivo antibacterial activity against Escherichia coli ATCC 25922 infected in kunming mouse assessed as decrease in bacterial load in peritoneal lavage at 10 mg/kg, ip administered 4 hrs after infection and measured 18 hrs after infection; format: functional, organism-based; details: time 14.0 hrs
# Staphylococcus aureus [13] = test: In vivo antibacterial activity against methicillin sensitive Staphylococcus aureus ATCC 25923 infected in kunming mouse assessed as increase in survival rate at 10 mg/kg, ip administered 4 hrs after infection and measured up to 7 days after infection relative to control; format: functional; details: time day <=7
# Nakaseomyces glabratus [14] = test: Antibiofilm activity against Candida glabrata assessed as biofilm eradication at BIC-5 by XTT and crystal violet staining assay relative to control; format: functional
# [15] = Immunomodulatory activity in mouse peritoneal macrophage assessed as increase in IL-10 mRNA level at 20 ug/ml measured after 6 hrs by qRT-PCR analysis relative to control; format: functional; details: dose 20 µg/ml
# Neutrophil [16] = test: Immunomodulatory activity in neutrophils (unknown origin) assessed as inhibition of LPS-induced CXCL1/KC level at 5 to 20 ug/ml by ELISA; format: functional, cell-based; details: dose 5-20 µg/ml
# Neutrophil [17] = test: Immunomodulatory activity in neutrophils (unknown origin) assessed as effect on TNF-alpha level at 20 ug/ml measured after 12 hrs by ELISA; format: functional, cell-based; details: dose 20.0 µg/ml
# Mus musculus [18] = test: Immunomodulatory activity in Kunming mouse infected with vancomycin-resistant Staphylococcus aureus assessed as decreased in IL-1beta level in peritoneal lavage at 10 mg/kg, ip administered 24 hrs before infection by ELISA; format: functional, organism-based
# Mus musculus [19] = test: Immunomodulatory activity in Kunming mouse infected with vancomycin-resistant Staphylococcus aureus assessed as decreased in IL-6 level in peritoneal lavage at 10 mg/kg, ip administered 4 hrs after infection by ELISA; format: functional, organism-based
# Mus musculus [20] = test: Immunomodulatory activity in Kunming mouse infected with vancomycin-resistant Staphylococcus aureus assessed as increased in MCP-1 level in peritoneal lavage at 10 mg/kg, ip administered 4 hrs after infection by ELISA; format: functional, organism-based
# [21] = Toxicity in Kunming mouse assessed as effect on IL-1beta levels at 10 mg/kg, ip measured after 5 hrs by ELISA; format: organism-based; details: in vivo
# Staphylococcus aureus [22] = test: Antibacterial activity against FITC-labelled Staphylococcus aureus ATCC 25923 infected in neutrophil cells assessed as entrapment of bacteria by NET releasing neutrophil at 20 to 40 ug/ml by fluorescence analysis; format: functional, organism-based; details: dose 20-40 µg/ml
# L02 = test: Cytotoxicity against human HL7702 cells assessed as cell death at 100 ug/ml by MTT assay; format: cell-based
# Mus musculus [23] = test: Immunomodulatory activity in mouse assessed as increase […] of KC in peritoneal cavity at 10 mg/kg, ip measured after 5 to 24 hrs by ELISA; format: functional, organism-based; details: time 5-24 hrs
# Mus musculus [24] = test: Immunomodulatory activity in Kunming mouse infected with vancomycin-resistant Staphylococcus aureus assessed as effect number of inflammatory monocytes in peritoneal cavity at 10 mg/kg, ip measured upto 24 hrs by flow cytometry; format: functional, organism-based; details: time hrs <=24
# [25] = Induction of neutrophil extracellular trap formation in neutrophil (unknown origin) at 40 ug/ml measured after 3 hrs by fluorescence analysis; format: functional; details: dose 40 µg/ml
# Macrophage [26] = test: Inhibition of LPS-induced phosphorylation of p38 in mouse peritoneal macrophage pretreated for 1 hr followed by LPS stimulation measured after 30 mins by Western blot analysis; format: tissue-based; details: dose 5-20 µg/ml, time 1.5 hrs
# [27] = target: T1, Mitogen-activated protein kinase 1 and 3 (ERK2 and ERK1) (Mus musculus) (UniProt P63085+Q63844); test: Inhibition of LPS-induced phosphorylation of Erk1/2 in mouse peritoneal macrophage pretreated for 1 hr followed by LPS stimulation measured after 30 mins by Western blot analysis; format: tissue-based; details: dose 5-20 µg/ml, time 1.5 hrs
# [28] = target: Mitogen-activated protein kinase 8/9 (Homo sapiens) (UniProt P45983+P45984); test: Inhibition of LPS-induced phosphorylation of Jnk1/2 in mouse peritoneal macrophage pretreated for 1 hr followed by LPS stimulation measured after 30 mins by Western blot analysis; format: tissue-based; details: dose 5-20 µg/ml, time 1.5 hrs
# Macrophage [29] = test: Inhibition of LPS-induced phosphorylation of p38 in mouse peritoneal macrophage at 20 ug/ml pretreated for 1 hr followed by LPS stimulation measured after 30 mins by Western blot analysis relative to control; format: tissue-based; details: dose 20.0 µg/ml, time 1.5 hrs
# [30] = target: T1, Mitogen-activated protein kinase 1 and 3 (ERK2 and ERK1) (Mus musculus); test: Inhibition of LPS-induced phosphorylation of Erk1/2 in mouse peritoneal macrophage at 20 ug/ml pretreated for 1 hr followed by LPS stimulation measured after 30 mins by Western blot analysis relative to control; format: tissue-based; details: dose 20.0 µg/ml, time 1.5 hrs
# Staphylococcus aureus [31] = test: Antibacterial activity against vancomycin-resistant Staphylococcus aureus assessed as bacterial growth inhibition in aqueous solution incubated upto 96 hrs; format: functional; details: time hrs <=96
# T1 sequence (P63085 whole entry, looked up): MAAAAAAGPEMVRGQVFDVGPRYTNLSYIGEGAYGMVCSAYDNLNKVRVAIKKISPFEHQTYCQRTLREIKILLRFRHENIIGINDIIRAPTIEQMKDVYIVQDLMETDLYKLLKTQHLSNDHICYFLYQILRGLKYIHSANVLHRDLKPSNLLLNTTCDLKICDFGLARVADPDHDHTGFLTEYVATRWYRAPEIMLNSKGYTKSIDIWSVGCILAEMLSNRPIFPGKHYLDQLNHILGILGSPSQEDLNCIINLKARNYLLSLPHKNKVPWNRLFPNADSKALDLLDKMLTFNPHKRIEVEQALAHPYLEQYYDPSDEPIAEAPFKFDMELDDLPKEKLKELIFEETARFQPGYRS
# T1 sequence (Q63844 whole entry, looked up): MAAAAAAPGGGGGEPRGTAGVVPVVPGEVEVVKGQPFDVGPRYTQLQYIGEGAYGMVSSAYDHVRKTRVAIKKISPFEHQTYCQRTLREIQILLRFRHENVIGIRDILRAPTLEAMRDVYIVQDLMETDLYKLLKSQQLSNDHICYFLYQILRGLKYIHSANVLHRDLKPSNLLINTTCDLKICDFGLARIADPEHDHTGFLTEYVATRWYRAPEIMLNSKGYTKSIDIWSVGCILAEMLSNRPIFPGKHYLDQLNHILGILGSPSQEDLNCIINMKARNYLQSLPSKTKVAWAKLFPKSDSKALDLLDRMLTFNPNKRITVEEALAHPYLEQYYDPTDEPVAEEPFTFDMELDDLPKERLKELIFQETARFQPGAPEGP
# Sequence of Mitogen-activated protein kinase 8/9 (Homo sapiens) (P45983 whole entry, looked up): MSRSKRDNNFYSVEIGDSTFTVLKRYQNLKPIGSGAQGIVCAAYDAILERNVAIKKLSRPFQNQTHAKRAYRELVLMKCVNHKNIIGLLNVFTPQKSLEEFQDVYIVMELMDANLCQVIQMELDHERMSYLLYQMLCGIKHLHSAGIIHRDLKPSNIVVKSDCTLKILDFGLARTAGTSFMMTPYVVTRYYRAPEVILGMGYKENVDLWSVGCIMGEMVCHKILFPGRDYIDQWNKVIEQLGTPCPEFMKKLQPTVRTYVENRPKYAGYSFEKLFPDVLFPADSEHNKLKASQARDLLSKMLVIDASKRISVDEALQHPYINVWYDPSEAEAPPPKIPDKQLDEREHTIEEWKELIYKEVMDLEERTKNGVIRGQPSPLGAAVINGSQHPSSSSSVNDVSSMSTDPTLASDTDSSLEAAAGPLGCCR
# Sequence of Mitogen-activated protein kinase 8/9 (Homo sapiens) (P45984 whole entry, looked up): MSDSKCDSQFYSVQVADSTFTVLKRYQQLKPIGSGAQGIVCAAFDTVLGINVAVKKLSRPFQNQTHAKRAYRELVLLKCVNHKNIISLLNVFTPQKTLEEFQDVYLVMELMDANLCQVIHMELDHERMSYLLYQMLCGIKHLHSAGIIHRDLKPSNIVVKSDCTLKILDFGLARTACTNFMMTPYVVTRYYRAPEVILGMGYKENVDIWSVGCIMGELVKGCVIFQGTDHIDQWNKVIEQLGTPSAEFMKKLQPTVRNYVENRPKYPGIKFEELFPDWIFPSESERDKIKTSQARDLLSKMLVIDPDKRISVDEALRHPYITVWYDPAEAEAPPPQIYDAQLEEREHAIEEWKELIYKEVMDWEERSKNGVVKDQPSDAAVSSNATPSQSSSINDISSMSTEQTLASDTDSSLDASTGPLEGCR
smiles,measurement,setting,value
CC[C@H](C)[C@H](NC(=O)[C@@H]1CCCN1C(=O)[C@@H](NC(=O)[C@@H](NC(=O)CNC(=O)CNC(=O)[C@@H](NC(=O)[C@H](Cc1ccccc1)NC(=O)[C@@H](NC(=O)[C@H](CCCCN)NC(=O)[C@@H](NC(=O)[C@H](CCCCN)NC(=O)[C@H](CCCCN)NC(=O)[C@H](Cc1ccccc1)NC(=O)[C@@H](NC(=O)[C@H](CCCCN)NC(=O)[C@H](CCCNC(=N)N)NC(=O)[C@H](Cc1ccccc1)NC(=O)CNC(=O)[C@H](CCCCN)NC(=O)[C@H](CCCCN)NC(=O)[C@@H](NC(=O)[C@H](CCCCN)NC(=O)[C@H](CCCNC(=N)N)NC(=O)[C@H](Cc1ccccc1)NC(=O)[C@H](Cc1ccccc1)NC(=O)[C@H](CCCCN)NC(=O)[C@H](CCCCN)NC(=O)[C@H](Cc1ccccc1)NC(=O)[C@H](CCCNC(=N)N)NC(=O)[C@@H](N)CCCCN)[C@@H](C)CC)[C@@H](C)CC)[C@@H](C)O)[C@@H](C)CC)[C@@H](C)CC)[C@@H](C)O)[C@@H](C)CC)C(=O)O (H-KRFKKFFRKIKKGFRKIFKKTKIFIGGTIPI-OH),MIC,Staphylococcus aureus [1],1.17 µg/mL
same,MIC,Staphylococcus aureus [2],1.17 µg/mL
same,MIC,Nocardia asteroides,1.17 µg/mL
same,MIC,Bacillus cereus,1.17 µg/mL
same,MIC,Enterococcus faecalis,1.17 µg/mL
same,MIC,Escherichia coli [3],1.17 µg/mL
same,MIC,Pseudomonas aeruginosa [4],1.17 µg/mL
same,MIC,Pseudomonas aeruginosa [5],1.17 µg/mL
same,MIC,Candida albicans,1.17 µg/mL
same,MIC,Nakaseomyces glabratus [6],1.17 µg/mL
same,fold change (FC),[7],13
same,inhibition,Macrophage [8],Dose-dependent effect
same,inhibition,Macrophage [9],Dose-dependent effect
same,Activity,Staphylococcus aureus [10],Dose-dependent effect
same,Activity,Staphylococcus aureus [11],Active
same,Activity,Escherichia coli [12],Active
same,Activity,Staphylococcus aureus [13],83%
same,Activity,Nakaseomyces glabratus [14],37.47%
same,fold change (FC),[15],8
same,inhibition,Neutrophil [16],inactive
same,Activity,Neutrophil [17],inactive
same,Activity,Mus musculus [18],Active
same,Activity,Mus musculus [19],Active
same,Activity,Mus musculus [20],Active
same,Activity,[21],Non-Toxic
same,Activity,Staphylococcus aureus [22],Active
same,Activity,L02,4.46%
same,Activity,Mus musculus [23],Active
same,Activity,Mus musculus [24],inactive
same,Activity,[25],41.16%
same,inhibition,Macrophage [26],Dose-dependent effect
same,inhibition,[27],Dose-dependent effect
same,inhibition,[28],Dose-dependent effect
same,inhibition,Macrophage [29],92%
same,inhibition,[30],90%
same,MIC,Staphylococcus aureus [31],4.96 µg/mL
